Results taken from patent publication US10774114B2, “Respiratory syncytial virus (RSV) replication inhibitors” (priority 2014, dated 2020).
Where a SMILES comes first, the peptide text is derived from it. Bridges are numbered along the chain shown (N, C = ends). [ ]: non-standard residue; d: D form. R8 = C=CCCCCCC[C@@](C)(N)C(=O)O; R5 = C=CCCC[C@@](C)(N)C(=O)O; S5 = C=CCCC[C@](C)(N)C(=O)O

What was measured:
[1] = test system: RSV-mCherry virus; conditions: read-out: EC50, inhibition of viral replication; Hep2 cells infected with RSV-mCherry, peptides added post-infection, fluorescence read at 48 h
Description: HEp-2 cells were seeded in 96 well plates and infected with 500 PFU of rHRSV-Cherry virus. Following viral infection, cells were incubated in the presence of serial dilutions of stapled peptides. The red fluorescence was read at 48 h post infection by automatic counting.
rHRSV-mCherry Inhibition Assay.
HEp-2 cells were seeded at 5×10^4 cells per well in 96 well plates the day before and infected for 2 hours with 500 PFU of RSV-mCherry. The medium was then changed against MEM without phenol red medium containing dilutions of peptides. Each point of peptide dilution was made in duplicate. Plates were incubated 48 h at 37° C. and mCherry fluorescence measurement was performed using a spectrofluorometer (Tecan infinite M200PRO) with excitation and emission wavelengths of 580 and 620 nm, respectively (expressed in relative fluorescence units RFU). Non-infected HEp-2 cells were used as standards for fluorescence background levels.
Next the potential activity of stapled peptides was tested on infected cells. Hep2 cells were infected with a RSV-mCherry virus engineered by reverse genetics (Rameix-Welti et al, Nat Comm., 2014), and increasing concentrations of stapled peptides were added post-infection to study their effect on viral replication.

[2] = in vitro; assay type: cell-based; conditions: human
Description: (§1) HEp-2 (ATCC number CCL-23) and BHK-21 (clone BSRT7/5) cells were maintained in Eagle's miminum essential medium (EMEM) and Dulbecco's modified Eagle's medium (DMEM), respectively, supplemented with 10% FCS, 2 mM L-glutamine, and penicillin-streptomycin solution. The cells were grown in an incubator at 37° C. in 5% CO2. Cytotoxicity assays were done with the CellTiter-Glo Luminescent cell viability assay (Promega). Cells were transfected using Lipofectamine 2000 (Invitrogen, Cergy-Pontoise, France) as described by the manufacturer.

[3] = test system: rHRSV-Luc; assay: In vivo mice luciferase assay (rHRSV-Luc-infected mice); conditions: intranasal, 0.6 mg/ml, 50 μL in PBS, repeated at days 2 and 4; 6x10^4 PFU rHRSV-Luc
Description: In Vivo Mice Luciferase Assay.
Female BALB/c mice were purchased from the Centre d'ElevageR. Janvier (Le Genest Saint-Isle, France) and were used around 8 weeks of age. Mice strains were bred in a pathogen-free animal facility. Mice were fed normal mouse chow and water ad libitum and were raised and housed under standard conditions with air filtration. For infection experiments, mice were housed in cages inside stainless steel isolation cabinets that were ventilated under negative pressure with high-efficiency particulate air-filtered air. Mice were anesthetized by a mixture of ketamine and xylazine (1 and 0.2 mg per mouse, respectively) and infected IN with 50 μl of PBS containing 6×10^4 PFU of rHRSV-Luc. Body temperature and body weight were monitored at days 3-10. For in vivo imaging, mice were anesthetized. Alternatively, mice were killed at different time points, and lungs were then collected. For each time point, experiments were done in quadruplicate. […] Oral treatments were administered 1 h prior to RSV inoculation and then once on day 2 and on day 4. This experiment was repeated once.

[4] = test system: Hep2 cells; assay: in vitro; assay type: cell-based; conditions: at a concentration of 100 μM
Description: as §1

[5] = Far-UV CD spectroscopy (alpha-helical content); assay type: physicochemical; conditions: 10 mM phosphate buffer, pH 7.5
Description: FIGS. 7A-7C: Far-UV CD spectra of stapled peptides in 10 mM phosphate buffer, pH 7.5. […] HEVS 115-129.
CD experiments were performed on a Jasco-810 or on a Chirascan spectropolarimeter in a thermostated cell holder at 20° C. The samples were prepared in 10 mM phosphate buffer, pH 7.5, at a peptide concentration of 25 μM for HEVS 73-79 or […] for the other peptides. The far-UV spectra were recorded at 25° C. by step scan from 190 nm to 250 nm with a scan rate of 100 nm per min using a bandwidth of 1 nm and an integration time of 1 s. Each spectrum was the average of 5 scans. The spectra were substracted from buffer baseline and smoothed using the FFT filter (Jasco Software, Tokyo, Japan). The data were converted to per residue molar ellipticity units [Θ] (deg.cm^2.dmol^−l.residue^−1). The percentage of helicity was calculated as follows:
[formula] whereby CD222=molar ellipticity [e] at 222 nm in [mdeg], N=number of amino acids in the peptide and C=peptide molar concentration [mol/1].

Compound	EC50 [1]	also measured
CC[C@H](C)[C@H](NC(=O)[C@]1(C)CCCC=CCCCCCC[C@@](C)(NC(=O)[C@H](CC(N)=O)NC(=O)[C@H](CC(N)=O)NC(=O)[C@H](C)NC(=O)[C@H](CC(=O)O)NC(=O)[C@H](CCC(=O)O)NC(C)=O)C(=O)N[C@@H](C)C(=O)N[C@@H]([C@@H](C)O)C(=O)N[C@@H](CCCCN)C(=O)N[C@@H](Cc2ccccc2)C(=O)N[C@@H](CC(C)C)C(=O)N[C@@H](CCC(=O)O)C(=O)N1)C(=O)N[C@@H](CCCCN)C(=O)NCC(=O)N[C@@H](CCCCN)C(=O)N[C@@H](Cc1ccccc1)C(=O)N[C@@H](C)C(=O)N[C@@H](CO)C(N)=O [HEVS 77, EDANNR8ATKFLES5IKGKFAS] (Ac-EDANN[R8]ATKFLE[S5]IKGKFAS-NH2; staple 6-13)	60 µM	
CC[C@H](C)[C@@H]1NC(=O)[C@@](C)(NC(=O)[C@H](CCC(=O)O)NC(=O)[C@H](CC(C)C)NC(=O)[C@H](Cc2ccccc2)NC(=O)[C@H](CCCCN)NC(=O)[C@@H](NC(=O)[C@H](C)NC(=O)[C@H](CCCCN)NC(=O)[C@H](CC(N)=O)NC(=O)[C@H](CC(N)=O)NC(=O)[C@H](C)NC(=O)[C@H](CC(=O)O)NC(=O)[C@H](CCC(=O)O)NC(C)=O)[C@@H](C)O)CCCC=CCCC[C@@](C)(C(=O)N[C@@H](Cc2ccccc2)C(=O)N[C@@H](C)C(=O)N[C@@H](CO)C(N)=O)NC(=O)CNC(=O)[C@H](CCCCN)NC1=O [HEVS 78] (Ac-EDANNKATKFLE[S5]IKG[S5]FAS-NH2; staple 13-17)	15 µM	CC50 [2]: ~40 µM
CC[C@H](C)[C@@H]1NC(=O)[C@](C)(NC(=O)[C@H](CCC(=O)O)NC(=O)[C@H](CC(C)C)NC(=O)[C@H](Cc2ccccc2)NC(=O)[C@H](CCCCN)NC(=O)[C@@H](NC(=O)[C@H](C)NC(=O)[C@H](CCCCN)NC(=O)[C@H](CC(N)=O)NC(=O)[C@H](CC(N)=O)NC(=O)[C@H](C)NC(=O)[C@H](CC(=O)O)NC(=O)[C@H](CCC(=O)O)NC(C)=O)[C@@H](C)O)CCCCCCC=CCCC[C@@](C)(C(N)=O)NC(=O)[C@H](C)NC(=O)[C@H](Cc2ccccc2)NC(=O)[C@H](CCCCN)NC(=O)CNC(=O)[C@H](CCCCN)NC1=O [HEVS 79] (Ac-EDANNKATKFLE[R8]IKGKFA[S5]-NH2; staple 13-20)	~80 µM	
CC[C@H](C)[C@H](NC(=O)[C@]1(C)CCCC=CCCCCCC[C@@](C)(NC(=O)[C@H](CC(N)=O)NC(=O)[C@H](CC(N)=O)NC(=O)[C@H](C)NC(=O)[C@H](CC(=O)O)NC(=O)[C@H](CCC(=O)O)NC(=O)CNC(=O)[C@H](Cc2c[nH]cn2)NC(=O)[C@H](Cc2ccccc2)NC(=O)[C@H](CCC(=O)O)NC(C)=O)C(=O)N[C@@H](C)C(=O)N[C@@H]([C@@H](C)O)C(=O)N[C@@H](CCCCN)C(=O)N[C@@H](Cc2ccccc2)C(=O)N[C@@H](CC(C)C)C(=O)N[C@@H](CCC(=O)O)C(=O)N1)C(=O)N[C@@H](CCCCN)C(=O)NCC(=O)N[C@@H](CCCCN)C(=O)N[C@@H](Cc1ccccc1)C(=O)N[C@@H](C)C(=O)N[C@@H](CO)C(N)=O [HEVS 124]	11 µM	luciferase activity (bioluminescence) in treated mice [3]: significant reduction
CC[C@H](C)[C@H](NC(=O)[C@]1(C)CCCC=CCCCCCC[C@@](C)(NC(=O)[C@H](CC(N)=O)NC(=O)[C@H](CC(N)=O)NC(=O)[C@H](C)NC(=O)[C@]2(C)CCCC=CCCC[C@@](C)(NC(=O)[C@H](Cc3ccccc3)NC(=O)[C@H](CCC(=O)O)NC(C)=O)C(=O)NCC(=O)N[C@@H](CCC(=O)O)C(=O)N2)C(=O)N[C@@H](C)C(=O)N[C@@H]([C@@H](C)O)C(=O)N[C@@H](CCCCN)C(=O)N[C@@H](Cc2ccccc2)C(=O)N[C@@H](CC(C)C)C(=O)N[C@@H](CCC(=O)O)C(=O)N1)C(=O)N[C@@H](CCCCN)C(=O)NCC(=O)N[C@@H](CCCCN)C(=O)N[C@@H](Cc1ccccc1)C(=O)N[C@@H](C)C(=O)N[C@@H](CO)C(N)=O [HEVS 126, EFR5GES5ANNR8ATKFLES5IKGKFAS] (Ac-EF[R5]GE[S5]ANN[R8]ATKFLE[S5]IKGKFAS-NH2; staple 3-6, 10-17)	3.5 µM	cytotoxicity [4]: cytotoxic
EDANNKATKFLESIKGKFAS [HEVS 73]		folding state by far UV CD [5]: largely unfolded
